{"source": "patent EP1428520A2", "about": "“Lipase inhibitors in deodorants and antiperspirants” (Henkel Kommanditgesellschaft auf Aktien, priority 2002, dated 2004)", "system": "Lipase (Fa. Sigma) aus Pseudomonas species", "experiment": "In vitro lipase inhibition test (Lipase Color Liquid assay, photometric release of methylresorufin)", "assay_type": "biochemical", "conditions": "37°C, pH 8.4, activity without inhibitor = 100%", "text": "Die hemmende Wirkung der Enzym-Inhibitoren wurde in vitro an einem geeigneten Modellenzym nachgewiesen. Da eine hautrelevante Lipase nicht zur Verfügung stand, diente die Lipase (Fa. Sigma) aus Pseudomonas species als Modellenzym, um die Hemmwirkung der erfindungsgemäß verwendeten Inhibitoren zu testen. Als Referenz diente Hinokitiol.\nDer Nachweis der Lipase-Enzymaktivität erfolgt analog zu den Angaben im Lipase Color Liquid Autom ―Datenblatt der Fa. Sentinel. Hierbei wird die Lipase-katalysierte Spaltung von 1,2-O-dilauryl-rac-glycero-3-glutarsäure-(6'-methylresorufin)-ester in Glutarsäure und Methylresorufin bestimmt. Die Freisetzung des Methylresorufin verursacht eine Purpurfärbung (λ = 580 nm), deren Bildung photometrisch verfolgt wird. [drawing 4]\nDer Assay wurde nach Herstellerangaben (37°C, Gesamtvolumen 1.21 ml) durchgeführt und enthielt: 37 mM Tris-Puffer (pH 8.4), 1,6 mM Desoxycholat, 6.6 mM Taurodesoxycholat, 0.9 mg/l Colipase, 1.5 mM Tartrat, 0.1 mM CaCl2 und 0.24 mM 1,2-O-dilauryl-rac-glycero-3-glutaric acid-(6'-methylresorufin)-ester (Substrat). Die Reaktion wurde mit 0.005 U Lipase (10 µl) gestartet und nach einer Inkubation von einer Minute die Zunahme der Absorption bei […] über 2 min verfolgt. Der lineare Anstieg der Absorption (A) pro Zeiteinheit (t) war hierbei ein Maß für die Aktivität des Enzyms (ΔA/Δt). Die Aktivität des Enzyms in Abwesenheit eines Inhibitors, (ΔA1/Δt1 ), wurde als Referenz gleich 100% gesetzt. Unter analogen Bedingungen wurden die Aktivitäten in Gegenwart eines Inhibitors (ΔA2/Δt2) bestimmt. Die Hemmwirkung des Inhibitors bzw. die Minderung der Enzymaktivität entspricht dann: 100% - (ΔA2/Δt2 )/( ΔA1/Δt1 )%."}
{"smiles": "CCCCCCCCCCCC(=O)NC(CCC(=O)O)C(=O)O", "note": "(stereo not drawn) [Protelan AGL95PV, Natriumlauroylglutamat]", "values": [{"measurement": "Hemmwirkung (Minderung der Lipase-Aktivität)", "setting": "inhibitor concentration 0,01 % (v/v)", "value": 29, "unit": "%"}, {"measurement": "Hemmwirkung (Minderung der Lipase-Aktivität)", "setting": "inhibitor concentration 0,1 % (v/v)", "value": 56, "unit": "%"}, {"measurement": "Hemmwirkung (Minderung der Lipase-Aktivität)", "setting": "inhibitor concentration 1 % (v/v)", "value": 85, "unit": "%"}]}
